Measured values as given in patent US20040235932A1, “Ophthalmic pharmaceutical compositions” (priority 2001, published 2004).

Key:
[1] = tested on: Dutch male colored rabbits; test: Activity to reduce intraocular pressure on continuous eye drop administration in rabbits; type: in vivo, rabbit; conditions: for Difference in intraocular pressure after the administration: test eye vs control eye, mean±S.E.; for time of maximum reduction in intraocular pressure after the administration: all determination days to the 57th day
Experimental: KRG-3332 as prepared in Reference Example 2 was dissolved in physiological saline to prepare a 0.01% solution, which was used as test solution 1 (0.01% eye drop) in the following method for determining the activity to reduce intraocular pressure. […] For the administration of eye drop, each 50 ρL of the test solution and the control (physiological saline) was administered to one eye and the other eye respectively, twice a day (11:00 and 19:00), and the administration continued for up to 57 days. The corneal surfaces of the animals were anaesthetized with 0.4% oxybuprocaine hydrochloride eye drop to, and the intraocular pressure was determined at time points of 11:00 (before the administration), 13:00(2 hours after the administration), 15:00 (4 hours after the administration) and 19:00 (8 hours after the administration, immediately before the second administration) one day before the administration and thereafter every week using an air applanation ophthalmotonometer (ALCON JAPAN LTD.). Average (mean±S.E.) of the difference between the intraocular pressures of eyes administered with the test solution and the control as determined at each time point, and the relevant t-test results were estimated. KRG-3332 was dissolved in physiological saline to prepare a 0.1% solution, which was used as test solution 2 (0.1% eye drop) in the determination of the activity to reduce intraocular pressure in a similar manner to above (1). For the comparison, bunazosin hydrochloride was dissolved in physiological saline to prepare a 0.03% solution, which was used as test solution 3 (reference drug, 0.03% eye drop of bunazosin hydrochloride) in the determination of the activity to reduce intraocular pressure in a similar manner to above (1) and (2).

[2] = tested on: patients suffering from ocular hypertension; conditions: cited from earlier work

In the case of `CCOc1ccccc1OCCN[C@H](C)Cc1cc(C(N)=O)c2c(ccn2CCCOC(=O)C(C)(C)C)c1.Cl` [KRG-3332, (R)-3-[7-carbamoyl-5-[2-[[2-(2-ethoxyphenoxy)ethyl]amino]propyl]-1H-indol-1-yl]propyl pivalate hydrochloride], the “development of drug resistance (change in activity to reduce intraocular pressure by continuous administration)” value ([1]; 0.01% and 0.1% eye drops twice a day for up to 57 days) is reported as “no development of drug resistance”, the “Difference in intraocular pressure after the administration” value (“Difference in intraocular pressure” below) ([1]; 0.01% eye drop, 1st day, 0 hours after the administration) is reported as 0.050 ± 0.398 mmHg and the “Difference in intraocular pressure” value ([1]; 0.01% eye drop, 1st day, 8 hours after the administration) is reported as −0.400 ± 0.392 mmHg. The “Difference in intraocular pressure” value ([1]; 0.01% eye drop, 8th day, 0 hours after the administration) was −0.200 ± 0.242 mmHg, the “Difference in intraocular pressure” value ([1]; 0.01% eye drop, 15th day, 4 hours after the administration) was −1.600 ± 0.882 mmHg and the “Difference in intraocular pressure” value ([1]; 0.01% eye drop, 15th day, 8 hours after the administration) was −0.350 ± 0.828 mmHg. The “Difference in intraocular pressure” value ([1]; 0.01% eye drop, 22nd day, 0 hours after the administration) was −0.850 ± 0.589 mmHg, the “Difference in intraocular pressure” value ([1]; 0.01% eye drop, 22nd day, 8 hours after the administration) was −0.550 ± 0.348 mmHg and the “Difference in intraocular pressure” value ([1]; 0.01% eye drop, 29th day, 8 hours after the administration) was −0.400 ± 0.392 mmHg. For the same compound, the “Difference in intraocular pressure” value ([1]; 0.01% eye drop, 36th day, 0 hours after the administration) was −0.500 ± 0.447 mmHg, the “Difference in intraocular pressure” value ([1]; 0.01% eye drop, 36th day, 4 hours after the administration) was −1.349 ± 0.831 mmHg and the “Difference in intraocular pressure” value ([1]; 0.01% eye drop, 36th day, 8 hours after the administration) was −1.250 ± 0.818 mmHg. For the same compound, the “Difference in intraocular pressure” value ([1]; 0.01% eye drop, 43rd day, 0 hours after the administration) was −0.150 ± 0.491 mmHg, the “Difference in intraocular pressure” value ([1]; 0.01% eye drop, 43rd day, 8 hours after the administration) was 0.100 ± 0.376 mmHg and the “Difference in intraocular pressure” value ([1]; 0.01% eye drop, 50th day, 0 hours after the administration) was −0.400 ± 0.430 mmHg. For the same compound, the “Difference in intraocular pressure” value ([1]; 0.01% eye drop, 50th day, 8 hours after the administration) was −0.900 ± 0.551 mmHg, the “Difference in intraocular pressure” value ([1]; 0.01% eye drop, 57th day, 0 hours after the administration) was 0.050 ± 0.366 mmHg and the “Difference in intraocular pressure” value ([1]; 0.01% eye drop, 57th day, 8 hours after the administration) was −0.150 ± 0.400 mmHg. The “time of maximum reduction in intraocular pressure after the administration” value ([1]; 0.01% eye drop) was 2 h, the “Difference in intraocular pressure” value ([1]; 0.1% eye drop, 1st day, 0 hours after the administration) was 0.000 ± 0.285 mmHg and the “Difference in intraocular pressure” value ([1]; 0.1% eye drop, 8th day, 0 hours after the administration) was −1.050 ± 0.619 mmHg. The “Difference in intraocular pressure” value ([1]; 0.1% eye drop, 15th day, 0 hours after the administration) was −1.350 ± 0.944 mmHg, the “Difference in intraocular pressure” value ([1]; 0.1% eye drop, 15th day, 8 hours after the administration) was −1.700 ± 0.917 mmHg and the “Difference in intraocular pressure” value ([1]; 0.1% eye drop, 36th day, 0 hours after the administration) was −1.050 ± 0.878 mmHg. The “Difference in intraocular pressure” value ([1]; 0.1% eye drop, 43rd day, 8 hours after the administration) was −2.250 ± 0.862 mmHg, the “Difference in intraocular pressure” value ([1]; 0.1% eye drop, 50th day, 0 hours after the administration) was −0.600 ± 0.801 mmHg and the “Difference in intraocular pressure” value ([1]; 0.1% eye drop, 50th day, 4 hours after the administration) was −1.950 ± 0.756 mmHg. The “Difference in intraocular pressure” value ([1]; 0.1% eye drop, 50th day, 8 hours after the administration) was −1.150 ± 0.573 mmHg, the “Difference in intraocular pressure” value ([1]; 0.1% eye drop, 57th day, 0 hours after the administration) was −1.500 ± 0.822 mmHg and the “time of maximum reduction in intraocular pressure after the administration” value ([1]; 0.1% eye drop) was 2 h.
For `COC(=O)[C@H]1[C@H]2C[C@H]3c4[nH]c5ccccc5c4CCN3C[C@@H]2CC[C@@H]1O` [corynanthine, methyl 17α-hydroxyyohimban-16β-carboxylate], the “activity for reducing intraocular pressure” value ([2]; concentrations of 2 to 5% in eye drops) is listed as “demonstrated Lo have an activity for reducing intraocular pressure” and the “development of drug resistance” value ([2]; continued administration for a week) is listed as “the continued administration thereof for a week developed drug resistance”.
